# In ChEMBL document CHEMBL1153134, “Dammarane-type saponins from the flower buds of Panax ginseng and their effects on human leukemia cells” (Bioorg Med Chem Lett, 2010):
# Activity calls are given as the source filed them. The rule behind the calls is not given here.
# What was measured:
# [1] = test system: HL-60; experiment: Cytotoxicity against human HL60 cells by MTT assay; format: functional, cell-based
# [2] = test system: HL-60; experiment: Induction of apoptosis in human HL60 cells assessed as increase of apoptotic bodies at IC50 concentration after 24 hrs using Hoechst 33342 staining by fluorescent microscopic analysis; format: functional, cell-based
# [3] = test system: HL-60; experiment: Induction of apoptosis in human HL60 cells assessed as DNA accumulation at sub-G1 phase at IC50 concentration after 24 hrs by flow cytometry; format: functional
# [4] = test system: HaCaT; experiment: Inhibition of ultraviolet-B-induced apoptosis in human HaCaT cells; format: functional, cell-based
Structure (SMILES),IC50 [1],Activity [2],Activity [3],Activity [4]
COC(CC[C@](C)(O[C@@H]1O[C@H](CO)[C@@H](O)[C@H](O)[C@H]1O)[C@H]1CC[C@]2(C)[C@@H]1[C@H](O)C[C@@H]1[C@@]3(C)CC[C@H](O)C(C)(C)[C@@H]3[C@@H](O)C[C@]12C)OC [FLORALGINSENOSIDE TB],100 µM,–,–,–
C=C(C)C(=O)CC[C@](C)(O[C@@H]1O[C@H](CO)[C@@H](O)[C@H](O)[C@H]1O)[C@H]1CC[C@]2(C)[C@@H]1[C@H](O)C[C@@H]1[C@@]3(C)CC[C@H](O)C(C)(C)[C@@H]3[C@@H](O)C[C@]12C [FLORALGINSENOSIDE TA],36.3 µM,Active,29.8%,–
O=C1c2c(O)ccc(O)c2C(=O)c2c(NCCNCCO)ccc(NCCNCCO)c21 [MITOXANTRONE],6.8 µM,–,–,–
CC(C)=CCC[C@](C)(O[C@@H]1O[C@H](CO)[C@@H](O)[C@H](O)[C@H]1O)[C@H]1CC[C@]2(C)[C@@H]1[C@H](O)C[C@@H]1[C@@]3(C)CC[C@H](O)C(C)(C)[C@@H]3[C@@H](O)C[C@]12C [GINSENOSIDE F1],23.2 µM,Active,19.2%,Active
C=C(C)C(CC[C@](C)(O[C@@H]1O[C@H](COC2OC[C@H](O)[C@H](O)[C@H]2O)[C@@H](O)[C@H](O)[C@H]1O)[C@H]1CC[C@]2(C)[C@@H]1[C@H](O)C[C@@H]1[C@@]3(C)CC[C@H](O[C@@H]4O[C@H](COC5O[C@H](CO)[C@@H](O)[C@H](O)[C@H]5O)[C@@H](O)[C@H](O)[C@H]4O)C(C)(C)[C@@H]3[C@@H](O)C[C@]12C)OO (some centres undefined) [FLORALGINSENOSIDE TD],100 µM,–,–,–
CC(C)=CCC[C@](C)(O[C@@H]1O[C@H](CO[C@H]2O[C@H](CO)[C@@H](O)[C@@H]2O)[C@@H](O)[C@H](O)[C@H]1O)[C@H]1CC[C@]2(C)[C@@H]1[C@H](O)C[C@@H]1[C@@]3(C)CC[C@H](O)C(C)(C)[C@@H]3[C@@H](O)C[C@]12C [GINSENOSIDE F5],62.4 µM,Active,21.4%,–
C=C(C)C(CC[C@](C)(O[C@@H]1O[C@H](CO[C@@H]2OC[C@H](O)[C@H](O)[C@H]2O)[C@@H](O)[C@H](O)[C@H]1O)[C@H]1CC[C@]2(C)[C@@H]1[C@H](O)C[C@@H]1[C@@]3(C)CC[C@H](O[C@@H]4O[C@H](CO[C@@H]5O[C@H](CO)[C@@H](O)[C@H](O)[C@H]5O)[C@@H](O)[C@H](O)[C@H]4O)C(C)(C)[C@@H]3[C@@H](O)C[C@]12C)OO (some centres undefined) [FLORALGINSENOSIDE TC],100 µM,–,–,–
